Measurements as given in patent US20150141381A1, “TETRACYCLINE COMPOUNDS HAVING TARGET THERAPEUTIC ACTIVITIES” (Paratek Pharmaceuticals, Inc., priority 2001, published 2015).

Assays:
E. coli mL308 225 = assay: In Vitro Anti-Bacterial Activity Assay (MIC), gram negative; type: cell-based; conditions: Escherichia coli, ML308225, 18 h, MIC class, Table 3; read-out: Antibiotic Activity Gram −
S. aureus RN450 = assay: In Vitro Anti-Bacterial Activity Assay (MIC), gram positive; type: cell-based; conditions: Staphylococcus aureus, RN450, 18 h, MIC class, Table 3; read-out: Antibiotic Activity Gram +

Row | SMILES | MIC (E. coli mL308 225) | MIC (S. aureus RN450)
1 | COC(=O)c1cc(N(C)C)c2c(c1O)C(=O)C1=C(O)[C@]3(O)C(=O)C(C(N)=O)=C(O)C(N(C)C)[C@@H]3C[C@@H]1C2 (stereo partly drawn) [MO] | > 4 µg/mL | > 4 µg/mL
2 | CC(=O)c1cc(N(C)C)c2c(c1O)C(=O)C1=C(O)[C@]3(O)C(=O)C(C(N)=O)=C(O)[C@@H](N(C)C)[C@@H]3C[C@@H]1C2 [MQ] | > 4 µg/mL | > 4 µg/mL
3 | CN(C)C(=O)C(=O)c1ccc(O)c2c1C[C@H]1C[C@H]3C(N(C)C)C(O)=C(C(N)=O)C(=O)[C@@]3(O)C(O)=C1C2=O (stereo partly drawn) [MR] | < 4 µg/mL | < 4 µg/mL
4 | Cc1csc(NCc2cc(N(C)C)c3c(c2O)C(=O)C2=C(O)[C@]4(O)C(=O)C(C(N)=O)=C(O)C(N(C)C)[C@@H]4C[C@@H]2C3)n1 (stereo partly drawn) [MS] | > 4 µg/mL | < 4 µg/mL
5 | CCOC(=O)c1csc(NCc2cc(N(C)C)c3c(c2O)C(=O)C2=C(O)[C@]4(O)C(=O)C(C(N)=O)=C(O)C(N(C)C)[C@@H]4C[C@@H]2C3)n1 (stereo partly drawn) [MT] | > 4 µg/mL | > 4 µg/mL
6 | CN(C)C1C(O)=C(C(N)=O)C(=O)[C@@]2(O)C(O)=C3C(=O)c4c(O)c(CNCC(C)(C)C)cc(CNCC(C)(C)C)c4C[C@H]3C[C@@H]12 (stereo partly drawn) [MU] | < 4 µg/mL | < 4 µg/mL
7 | CN(C)c1cc(CNCc2ccccc2)c(O)c2c1C[C@H]1C[C@H]3[C@H](N(C)C)C(O)=C(C(N)=O)C(=O)[C@@]3(O)C(O)=C1C2=O [MW] | < 4 µg/mL | < 4 µg/mL
8 | CN(C)[C@@H]1C(O)=C(C(N)=O)C(=O)[C@@]2(O)C(O)=C3C(=O)c4c(ccc(CNCC(C)(C)C)c4O)C[C@H]3C[C@@H]12 [MZ] | < 4 µg/mL | < 4 µg/mL
9 | CN(C)[C@@H]1C(O)=C(C(N)=O)C(=O)[C@@]2(O)C(O)=C3C(=O)c4c(O)ccc(-c5ccc(/C=N/O)o5)c4C[C@H]3C[C@@H]12 [NA] | < 4 µg/mL | < 4 µg/mL
10 | CN(C)C1C(O)=C(C(N)=O)C(=O)[C@@]2(O)C(O)=C3C(=O)c4c(O)ccc(CNC5CCCC5)c4C[C@H]3C[C@@H]12 (stereo partly drawn) [NE] | < 4 µg/mL | < 4 µg/mL
11 | CC(C)CNCc1ccc(O)c2c1C[C@H]1C[C@H]3C(N(C)C)C(O)=C(C(N)=O)C(=O)[C@@]3(O)C(O)=C1C2=O (stereo partly drawn) [NF] | < 4 µg/mL | < 4 µg/mL
12 | COC(=O)/C=C/c1ccc(O)c2c1C[C@H]1C[C@H]3[C@H](N(C)C)C(O)=C(C(N)=O)C(=O)[C@@]3(O)C(O)=C1C2=O [NJ] | > 4 µg/mL | < 4 µg/mL
13 | CN(C)c1cc(N2CCCCC2)c(O)c2c1C[C@H]1C[C@H]3[C@H](N(C)C)C(O)=C(C(N)=O)C(=O)[C@@]3(O)C(O)=C1C2=O [NK] | > 4 µg/mL | > 4 µg/mL
14 | CN(C)[C@@H]1C(O)=C(C(N)=O)C(=O)[C@@]2(O)C(O)=C3C(=O)c4c(O)ccc(-c5cncnc5)c4C[C@H]3C[C@@H]12 [NL] | < 4 µg/mL | < 4 µg/mL
15 | CN(C)c1cc(C=O)c(O)c2c1C[C@H]1C[C@H]3[C@@H](N(C)C)C(O)=C(C(N)=O)C(=O)[C@@]3(O)C(O)=C1C2=O [NM] | < 4 µg/mL | < 4 µg/mL
16 | CC(C)c1ccc(CNc2cc(N(C)C)c3c(c2O)C(=O)C2=C(O)[C@]4(O)C(=O)C(C(N)=O)=C(O)[C@@H](N(C)C)[C@@H]4C[C@@H]2C3)cc1 [NN] | > 4 µg/mL | < 4 µg/mL
17 | CN(C)[C@@H]1C(O)=C(C(N)=O)C(=O)[C@@]2(O)C(O)=C3C(=O)c4c(O)ccc(C=CC#N)c4C[C@H]3C[C@@H]12 [NO] | < 4 µg/mL | < 4 µg/mL
18 | CN(C)[C@H]1C(O)=C(C(N)=O)C(=O)[C@@]2(O)C(O)=C3C(=O)c4c(O)c(CNCC(C)(C)C)cc(-c5ccoc5)c4C[C@H]3C[C@@H]12 [NP] | < 4 µg/mL | < 4 µg/mL
19 | COc1ccc(CNCC(F)(F)F)cc1-c1ccc(O)c2c1C[C@H]1C[C@H]3C(N(C)C)C(O)=C(C(N)=O)C(=O)[C@@]3(O)C(O)=C1C2=O (stereo partly drawn) [NQ] | > 4 µg/mL | < 4 µg/mL
20 | CCC(NCc1cc(N(C)C)c2c(c1O)C(=O)C1=C(O)[C@]3(O)C(=O)C(C(N)=O)=C(O)C(N(C)C)[C@@H]3C[C@@H]1C2)C(F)(F)F (stereo partly drawn) [NT] | > 4 µg/mL | < 4 µg/mL
21 | CCc1ccnc(-c2ccc(O)c3c2C[C@H]2C[C@H]4[C@H](N(C)C)C(O)=C(C(N)=O)C(=O)[C@@]4(O)C(O)=C2C3=O)c1 [NZ] | < 4 µg/mL | < 4 µg/mL
22 | CN(C)[C@@H]1C(O)=C(C(N)=O)C(=O)[C@@]2(O)C(O)=C3C(=O)c4c(O)ccc(-c5ccc(NC(=O)C6CCCN6C(=O)C(F)(F)F)cc5)c4C[C@H]3C[C@@H]12 (stereo partly drawn) [OH] | > 4 µg/mL | < 4 µg/mL
23 | CN(C)[C@@H]1C(OCc2ccccc2)=C(C(N)=O)C(=O)[C@@]2(O)C(O)=C3C(=O)c4c(cccc4OCc4ccccc4)C[C@H]3C[C@@H]12 [OJ] | > 4 µg/mL | > 4 µg/mL
24 | CN(C)c1ccc(OCc2ccccc2)c2c1C[C@H]1C[C@H]3[C@H](N(C)C)C(OCc4ccccc4)=C(C(N)=O)C(=O)[C@@]3(O)C(O)=C1C2=O [ON] | > 4 µg/mL | > 4 µg/mL
